Laboratory results from patent publication US20250368595A1, “NOVEL MOLECULES” (XENIOPRO GmbH, priority 2018, published 2025).

What was measured:
HL-60 cells = assay: alamarBlue proliferation assay with HL-60 cells; assay type: cell-based, human; settings: relative to DMSO basis level 1.0
Description: (§1) The antiproliferative activities of compounds falling under formula (Ia), (Ib) and (Ic), respectively, were investigated on cells or cell lines originating from a disorder of the haematopoietic system, including the myeloid cell compartment and the lymphoid cell compartment (T-cells and B-cells), the neuroendocrine system, the cervix, the breast, the ovaries, the lung, the gastrointestinal tract, and the mucosal epithelium, as well as from the skin epithelium and from the muscle. To this end, HL-60 cells, NB-4 cells, HH cells, RPMI-8402 cells, TANQUE cells, TT cells, HeLa cells, MDA-MB-231 cells, FU-OV-1 cells, LOU-NH91 cells, 23132/87 cells, CAL-27 cells, BHY cells, SCC-25 cells, A-431 cells, human primary epidermal keratinocytes (HPEK), and C2C12 cells were seeded into 96-well plates suitable for fluorescence assays (CORNING #3598) at following initial cell numbers: 1000 cells per well for HL-60; 1000 cells per well for NB-4; 5000 cells per well for HH; 5000 cells per well for RPMI-8402; 1500 cells per well for TANOUE; 9000 cells per well for TT; 2000 cells per well for HeLa; 3000 cells per well for MDA-MB-231; 3000 cells per well for FU-OV-1; 4000 cells per well for LOU-NH91; 2000 cells per well for 23132/87; 2000 cells per well for CAL-27; 1500 cells per well for BHY; 1500 cells per well for SCC-25; 700 cells per well for A-431; 1000 cells per well for HPEK; 500 cells per well for C2C12. […] The readout was taken with a multi-well plate-reader in the fluorescence mode with applying a filter for excitation at 560 nm (band width 10 nm) and for emission at 590 nm (band width 10 nm). […]
(§2) The assays were performed in duplicate or more replicates of independent single experiments each containing a six-fold replicate for every condition. For every individual plate, the measured fluorescence intensity values of the conditions with compound treatment were normalized • against the corresponding equally weighted arithmetic mean of the fluorescence intensity values of the six DMSO treated control wells in order to obtain the relative values to a baseline level of 1.0. […]

NB-4 cells = assay: alamarBlue proliferation assay with NB-4 cells; assay type: cell-based, human; settings: relative to DMSO basis level 1.0
Description: as §1, §2

HH cells = assay: alamarBlue proliferation assay with HH cells; assay type: cell-based, human; settings: relative to DMSO basis level 1.0
Description: as §1, §2

RPMI-8402 cells = assay: alamarBlue proliferation assay with RPMI-8402 cells; assay type: cell-based, human; settings: relative to DMSO basis level 1.0
Description: as §1, §2

TANOUE cells = assay: alamarBlue proliferation assay with TANOUE cells; assay type: cell-based, human; settings: relative to DMSO basis level 1.0
Description: as §1, §2

TT cells = assay: alamarBlue proliferation assay with TT cells; assay type: cell-based, human; settings: relative to DMSO basis level 1.0
Description: as §1, §2

HeLa cells = assay: alamarBlue proliferation assay with HeLa cells; assay type: cell-based, human; settings: relative to DMSO basis level 1.0
Description: as §1, §2

MDA-MB-231 cells = assay: alamarBlue proliferation assay with MDA-MB-231 cells; assay type: cell-based, human; settings: 20 μM, relative to DMSO basis level 1.0
Description: The antiproliferative activities of compounds falling under formula (Ia), (Ib) and (Ic), respectively, were investigated on cells or cell lines originating from a disorder of the haematopoietic system, including the myeloid cell compartment and the lymphoid cell compartment (T-cells and B-cells), the neuroendocrine system, the cervix, the breast, the ovaries, the lung, the gastrointestinal tract, and the mucosal epithelium, as well as from the skin epithelium and from the muscle. […] The readout was taken with a multi-well plate-reader in the fluorescence mode with applying a filter for excitation at 560 nm (band width 10 nm) and for emission at 590 nm (band width 10 nm). […]
as §2

FU-OV-1 cells = assay: alamarBlue proliferation assay with FU-OV-1 cells; assay type: cell-based, human; settings: relative to DMSO basis level 1.0
Description: as §1, §2

LOU-NH91 cells = assay: alamarBlue proliferation assay with LOU-NH91 cells; assay type: cell-based, human; settings: relative to DMSO basis level 1.0
Description: as §1, §2

23132/87 cells = assay: alamarBlue proliferation assay with 23132/87 cells; assay type: cell-based, human; settings: relative to DMSO basis level 1.0
Description: as §1, §2

CAL-27 cells = assay: alamarBlue proliferation assay with CAL-27 cells; assay type: cell-based, human; settings: relative to DMSO basis level 1.0
Description: as §1, §2

BHY cells = assay: alamarBlue proliferation assay with BHY cells; assay type: cell-based, human; settings: relative to DMSO basis level 1.0
Description: as §1, §2

SCC-25 cells = assay: alamarBlue proliferation assay with SCC-25 cells; assay type: cell-based, human
Description: as §1, §2

A-431 cells = assay: alamarBlue proliferation assay with A-431 cells; assay type: cell-based, human
Description: as §1, §2

HPEKp cells = assay: alamarBlue proliferation assay with HPEKp cells; assay type: cell-based, human
Description: as §1, §2

C2C12 cells = assay: alamarBlue proliferation assay with C2C12 cells; assay type: cell-based, murine
Description: as §1, §2

| SMILES | Activity Range: weighted arithmetic mean (AVEw) of normalized fluorescence intensity (HL-60 cells; 20 μM) | Activity Range: weighted arithmetic mean (AVEw) of normalized fluorescence intensity (NB-4 cells; 20 μM) | Activity Range: weighted arithmetic mean (AVEw) of normalized fluorescence intensity (HH cells; 20 μM) | Activity Range: weighted arithmetic mean (AVEw) of normalized fluorescence intensity (RPMI-8402 cells; 20 μM) | Activity Range: weighted arithmetic mean (AVEw) of normalized fluorescence intensity (TANOUE cells; 20 μM) | Activity Range: weighted arithmetic mean (AVEw) of normalized fluorescence intensity (TT cells; 20 μM) | Activity Range: weighted arithmetic mean (AVEw) of normalized fluorescence intensity (HeLa cells; 20 μM) | Activity Range: weighted arithmetic mean (AVEw) of normalized fluorescence intensity (MDA-MB-231 cells) | Activity Range: weighted arithmetic mean (AVEw) of normalized fluorescence intensity (FU-OV-1 cells; 20 μM) | Activity Range: weighted arithmetic mean (AVEw) of normalized fluorescence intensity (LOU-NH91 cells; 20 μM) | Activity Range: weighted arithmetic mean (AVEw) of normalized fluorescence intensity (23132/87 cells; 20 μM) | Activity Range: weighted arithmetic mean (AVEw) of normalized fluorescence intensity (CAL-27 cells; 20 μM) | Activity Range: weighted arithmetic mean (AVEw) of normalized fluorescence intensity (BHY cells; 20 μM) | Activity Range: weighted arithmetic mean (AVEw) of normalized fluorescence intensity, relative to DMSO basis level of 1.0 (SCC-25 cells; 20 μM) | Activity Range: weighted arithmetic mean (AVEw) of normalized fluorescence intensity, relative to DMSO basis level of 1.0 (A-431 cells; 20 μM) | Activity Range: weighted arithmetic mean (AVEw) of normalized fluorescence intensity, relative to DMSO basis level of 1.0 (HPEKp cells; control at 20 μM) | Activity Range: weighted arithmetic mean (AVEw) of normalized fluorescence intensity, relative to DMSO basis level of 1.0 (C2C12 cells; 20 μM) | other results |
| --- | --- | --- | --- | --- | --- | --- | --- | --- | --- | --- | --- | --- | --- | --- | --- | --- | --- | --- |
| Oc1ccc(C=Cc2cc(O)cc(O)c2)cc1 [RES, Resveratrol] | 0.4 ± 0.1 | 0.1 ± 0.0 | 0.6 ± 0.1 | 0.6 ± 0.0 | 0.1 ± 0.0 | 0.9 ± 0.0 | 0.9 ± 0.0 | 0.6 ± 0.0 | 0.7 ± 0.0 | 0.9 ± 0.1 | 0.5 ± 0.1 | 0.8 ± 0.1 | 0.5 ± 0.1 | 0.4 ± 0.1 | 0.6 ± 0.1 | 0.2 ± 0.0 | 0.8 ± 0.0 | Activity Range: weighted arithmetic mean (AVEw) of normalized fluorescence intensity (HL-60 cells; control at 40 μM): 0.2 ± 0.1; Activity Range: weighted arithmetic mean (AVEw) of normalized fluorescence intensity (NB-4 cells; control at 40 μM): 0.0 ± 0.0; Activity Range: weighted arithmetic mean (AVEw) of normalized fluorescence intensity (HH cells; control at 40 μM): 0.4 ± 0.1; Activity Range: weighted arithmetic mean (AVEw) of normalized fluorescence intensity (RPMI-8402 cells; control at 40 μM): 0.1 ± 0.0; Activity Range: weighted arithmetic mean (AVEw) of normalized fluorescence intensity (TANOUE cells; control at 40 μM): 0.0 ± 0.0; Activity Range: weighted arithmetic mean (AVEw) of normalized fluorescence intensity (TT cells; control at 40 μM): 0.7 ± 0.0; Activity Range: weighted arithmetic mean (AVEw) of normalized fluorescence intensity (HeLa cells; control at 40 μM): 0.4 ± 0.1; Activity Range: weighted arithmetic mean (AVEw) of normalized fluorescence intensity (FU-OV-1 cells; control at 40 μM): 0.4 ± 0.0; Activity Range: weighted arithmetic mean (AVEw) of normalized fluorescence intensity (LOU-NH91 cells; control at 40 μM): 0.7 ± 0.0; Activity Range: weighted arithmetic mean (AVEw) of normalized fluorescence intensity (23132/87 cells; control at 40 μM): 0.2 ± 0.0; Activity Range: weighted arithmetic mean (AVEw) of normalized fluorescence intensity (CAL-27 cells; control at 40 μM): 0.4 ± 0.3; Activity Range: weighted arithmetic mean (AVEw) of normalized fluorescence intensity (BHY cells; control at 40 μM): 0.3 ± 0.0; Activity Range: weighted arithmetic mean (AVEw) of normalized fluorescence intensity, relative to DMSO basis level of 1.0 (SCC-25 cells; control at 40 μM): 0.1 ± 0.0; Activity Range: weighted arithmetic mean (AVEw) of normalized fluorescence intensity, relative to DMSO basis level of 1.0 (A-431 cells; control at 40 μM): 0.2 ± 0.0; Activity Range: weighted arithmetic mean (AVEw) of normalized fluorescence intensity, relative to DMSO basis level of 1.0 (HPEKp cells; control at 40 μM): 0.2 ± 0.0; Activity Range: weighted arithmetic mean (AVEw) of normalized fluorescence intensity, relative to DMSO basis level of 1.0 (C2C12 cells; control at 40 μM): 0.2 ± 0.1 |
| CN(Cc1cnc2nc(N)nc(N)c2n1)c1ccc(C(=O)N[C@@H](CCC(=O)O)C(=O)O)cc1 [MTREX, Methotrexate] | 0.1 ± 0.1 | 0.1 ± 0.0 | 0.4 ± 0.1 | 0.1 ± 0.0 | 0.1 ± 0.0 | 1.0 ± 0.0 | 0.4 ± 0.0 | 0.6 ± 0.0 | 1.0 ± 0.0 | 0.5 ± 0.1 | 0.3 ± 0.0 | 0.1 ± 0.0 | 0.3 ± 0.0 | 0.5 ± 0.1 | 0.2 ± 0.1 | 0.9 ± 0.0 | 0.1 ± 0.0 |  |
